Measured values taken from patent US11912660B2, “S6K1 protein kinase inhibitors as cancer therapeutics” (Xavier University of Louisiana, priority 2020, dated 2024).
Values joined by “and” are separate entries in the source; they are usually repeats but may differ in a detail not shown here. Identical values can stand only once. Like-named read-outs stand apart in the source and are kept apart here.

How the values were obtained:
Assay in all cases: SelectScreen kinase panel screening
Assay type in all cases: biochemical
RPS6KB1 (p70S6K) = RPS6KB1 (p70S6K) (Homo sapiens (Human), UniProt P23443); conditions: for inhibition at 10 µM: RPS6KB1 (p70S6K)
Source text: (§1) The complete list of the kinases given in Table 1 and their details can be found on the ThermoFisher website for Biochemical Kinase assays (thermofisher.com/us/en/home/industrial/pharma-biopharma/drug-discovery-development/target-and-lead-identification-and-validation/kinasebiology.html).
RJ1 was taken as the lead structure for the synthesis of several diamide and monoamide derivatives of 4,6-diaminoisoindolin-1,3-dione.

ABL2 (Arg) = ABL2 (Arg) (Homo sapiens (Human), UniProt P42684)
Source text: as §1

AURKC (Aurora C) = AURKC (Aurora C) (Homo sapiens (Human), UniProt Q9UQB9)
Source text: as §1

CDC42 BPA (MRCKA) = CDC42 BPA (MRCKA) (Homo sapiens (Human), UniProt Q5VT25)
Source text: as §1

CDK1/cyclin B = CDK1/cyclin B (Homo sapiens (Human), UniProt P06493)
Source text: as §1

CDK5/p25 = CDK5/p25 (Homo sapiens (Human), UniProt Q00535)
Source text: as §1

CDK7/cyclin H/MNAT1 = CDK7/cyclin H/MNAT1 (Homo sapiens (Human), UniProt P50613)
Source text: as §1

EGFR (ErbB1) = EGFR (ErbB1) (Homo sapiens (Human), UniProt P00533)
Source text: as §1

EPHA1 = EPHA1 (Homo sapiens (Human), UniProt P21709)
Source text: as §1

ERBB4 (HER4) = ERBB4 (HER4) (Homo sapiens (Human), UniProt Q15303)
Source text: as §1

FES (FPS) = FES (FPS) (Homo sapiens (Human), UniProt P07332)
Source text: as §1

HCK = HCK (Homo sapiens (Human), UniProt P08631)
Source text: as §1

JAK1 = JAK1 (Homo sapiens (Human), UniProt P23458)
Source text: as §1

JAK2 = JAK2 (Homo sapiens (Human), UniProt O60674)
Source text: as §1

JAK3 = JAK3 (Homo sapiens (Human), UniProt P52333)
Source text: as §1

LCK = LCK (Homo sapiens (Human), UniProt P06239)
Source text: as §1

MAP2K1 (MEK1) = MAP2K1 (MEK1) (Homo sapiens (Human), UniProt Q02750)
Source text: as §1

MAP3K8 (COT) = MAP3K8 (COT) (Homo sapiens (Human), UniProt P41279)
Source text: as §1

MET (cMet) = MET (cMet) (Homo sapiens (Human), UniProt P08581)
Source text: as §1

NTRK1 (TRKA) = NTRK1 (TRKA) (Homo sapiens (Human), UniProt P04629)
Source text: as §1

PIM1 = PIM1 (Homo sapiens (Human), UniProt P11309)
Source text: as §1

PLK1 = PLK1 (Homo sapiens (Human), UniProt P53350)
Source text: as §1

PRKCB2 (PKC beta II) = PRKCB2 (PKC beta II) (Homo sapiens (Human), UniProt P05771)
Source text: as §1

RAF1 (cRAF) Y340D Y341D = RAF1 (cRAF) Y340D Y341D (Homo sapiens (Human), UniProt P04049, Y340D/Y341D)
Source text: as §1

RET = RET (Homo sapiens (Human), UniProt P07949)
Source text: as §1

ROS1 = ROS1 (Homo sapiens (Human), UniProt P08922)
Source text: as §1

SPHK1 = SPHK1 (Homo sapiens (Human), UniProt Q9NYA1); conditions: read-out: % Inhibition class
Source text: as §1

TYRO3 (RSE) = TYRO3 (RSE) (Homo sapiens (Human), UniProt Q06418)
Source text: as §1

RPS6KB1 (p70S6K), sequence (P23443 whole entry): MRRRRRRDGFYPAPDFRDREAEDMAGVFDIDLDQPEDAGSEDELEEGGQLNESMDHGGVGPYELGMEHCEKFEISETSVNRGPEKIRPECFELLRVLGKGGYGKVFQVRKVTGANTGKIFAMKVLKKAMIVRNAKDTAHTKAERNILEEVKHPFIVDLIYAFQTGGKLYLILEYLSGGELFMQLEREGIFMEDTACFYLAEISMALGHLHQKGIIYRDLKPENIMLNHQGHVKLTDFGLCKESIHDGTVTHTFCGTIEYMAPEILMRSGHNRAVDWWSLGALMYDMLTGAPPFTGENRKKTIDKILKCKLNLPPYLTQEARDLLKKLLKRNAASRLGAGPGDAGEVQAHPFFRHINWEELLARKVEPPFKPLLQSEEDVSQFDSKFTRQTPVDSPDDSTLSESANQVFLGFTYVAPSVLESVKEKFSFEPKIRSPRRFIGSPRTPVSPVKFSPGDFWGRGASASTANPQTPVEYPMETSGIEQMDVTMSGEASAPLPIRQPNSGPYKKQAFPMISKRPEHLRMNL
CDK7/cyclin H/MNAT1, sequence (P50613 whole entry): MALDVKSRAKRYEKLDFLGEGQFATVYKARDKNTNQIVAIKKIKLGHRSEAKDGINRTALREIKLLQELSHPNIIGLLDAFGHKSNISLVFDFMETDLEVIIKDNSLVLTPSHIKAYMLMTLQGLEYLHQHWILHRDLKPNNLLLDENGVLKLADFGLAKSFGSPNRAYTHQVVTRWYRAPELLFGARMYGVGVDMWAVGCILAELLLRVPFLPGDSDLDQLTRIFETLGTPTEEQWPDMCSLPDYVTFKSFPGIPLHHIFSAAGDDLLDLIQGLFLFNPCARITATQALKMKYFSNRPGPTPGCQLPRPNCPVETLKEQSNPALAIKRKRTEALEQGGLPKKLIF
CDK7/cyclin H/MNAT1, sequence (P51946 whole entry partner): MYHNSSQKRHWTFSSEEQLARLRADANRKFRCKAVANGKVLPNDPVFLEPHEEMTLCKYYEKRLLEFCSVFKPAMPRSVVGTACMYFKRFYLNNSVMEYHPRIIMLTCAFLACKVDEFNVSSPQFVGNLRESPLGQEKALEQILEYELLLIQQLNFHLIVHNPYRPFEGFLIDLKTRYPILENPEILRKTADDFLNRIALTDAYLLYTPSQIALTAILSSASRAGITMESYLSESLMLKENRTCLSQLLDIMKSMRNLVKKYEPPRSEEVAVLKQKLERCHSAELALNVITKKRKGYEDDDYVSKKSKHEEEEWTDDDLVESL
CDK7/cyclin H/MNAT1, sequence (P51948 whole entry partner): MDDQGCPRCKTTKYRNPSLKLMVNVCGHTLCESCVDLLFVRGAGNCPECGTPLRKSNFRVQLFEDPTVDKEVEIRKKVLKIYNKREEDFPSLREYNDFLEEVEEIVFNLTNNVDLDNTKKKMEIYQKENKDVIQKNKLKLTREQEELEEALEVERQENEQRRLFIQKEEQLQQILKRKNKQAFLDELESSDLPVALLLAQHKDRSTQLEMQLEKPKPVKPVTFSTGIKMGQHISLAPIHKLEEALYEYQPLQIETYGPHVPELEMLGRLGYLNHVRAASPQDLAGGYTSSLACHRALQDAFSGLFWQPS
TYRO3 (RSE), sequence (Q06418 41-890): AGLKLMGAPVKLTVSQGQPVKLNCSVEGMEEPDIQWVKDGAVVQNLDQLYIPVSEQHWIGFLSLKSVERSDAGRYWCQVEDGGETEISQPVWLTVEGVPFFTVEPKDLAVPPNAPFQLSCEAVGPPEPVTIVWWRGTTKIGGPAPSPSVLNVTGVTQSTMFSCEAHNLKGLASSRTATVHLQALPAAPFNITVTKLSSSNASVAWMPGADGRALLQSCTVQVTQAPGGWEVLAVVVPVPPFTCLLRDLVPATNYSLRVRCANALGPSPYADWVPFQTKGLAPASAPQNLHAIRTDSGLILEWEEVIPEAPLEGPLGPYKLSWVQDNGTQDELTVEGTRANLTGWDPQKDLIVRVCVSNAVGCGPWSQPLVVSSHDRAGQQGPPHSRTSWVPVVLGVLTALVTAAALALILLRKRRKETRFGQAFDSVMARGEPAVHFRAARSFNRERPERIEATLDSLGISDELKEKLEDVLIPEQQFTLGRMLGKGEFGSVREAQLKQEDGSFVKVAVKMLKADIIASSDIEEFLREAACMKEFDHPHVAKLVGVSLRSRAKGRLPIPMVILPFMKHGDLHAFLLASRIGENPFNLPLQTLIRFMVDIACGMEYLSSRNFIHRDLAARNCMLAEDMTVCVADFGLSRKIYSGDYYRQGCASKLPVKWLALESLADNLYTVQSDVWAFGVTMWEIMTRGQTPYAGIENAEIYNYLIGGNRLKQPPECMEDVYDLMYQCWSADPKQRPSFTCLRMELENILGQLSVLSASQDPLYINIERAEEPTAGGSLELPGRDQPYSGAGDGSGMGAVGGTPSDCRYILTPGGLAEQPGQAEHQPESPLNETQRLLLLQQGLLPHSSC
EPHA1, sequence (P21709 26-976): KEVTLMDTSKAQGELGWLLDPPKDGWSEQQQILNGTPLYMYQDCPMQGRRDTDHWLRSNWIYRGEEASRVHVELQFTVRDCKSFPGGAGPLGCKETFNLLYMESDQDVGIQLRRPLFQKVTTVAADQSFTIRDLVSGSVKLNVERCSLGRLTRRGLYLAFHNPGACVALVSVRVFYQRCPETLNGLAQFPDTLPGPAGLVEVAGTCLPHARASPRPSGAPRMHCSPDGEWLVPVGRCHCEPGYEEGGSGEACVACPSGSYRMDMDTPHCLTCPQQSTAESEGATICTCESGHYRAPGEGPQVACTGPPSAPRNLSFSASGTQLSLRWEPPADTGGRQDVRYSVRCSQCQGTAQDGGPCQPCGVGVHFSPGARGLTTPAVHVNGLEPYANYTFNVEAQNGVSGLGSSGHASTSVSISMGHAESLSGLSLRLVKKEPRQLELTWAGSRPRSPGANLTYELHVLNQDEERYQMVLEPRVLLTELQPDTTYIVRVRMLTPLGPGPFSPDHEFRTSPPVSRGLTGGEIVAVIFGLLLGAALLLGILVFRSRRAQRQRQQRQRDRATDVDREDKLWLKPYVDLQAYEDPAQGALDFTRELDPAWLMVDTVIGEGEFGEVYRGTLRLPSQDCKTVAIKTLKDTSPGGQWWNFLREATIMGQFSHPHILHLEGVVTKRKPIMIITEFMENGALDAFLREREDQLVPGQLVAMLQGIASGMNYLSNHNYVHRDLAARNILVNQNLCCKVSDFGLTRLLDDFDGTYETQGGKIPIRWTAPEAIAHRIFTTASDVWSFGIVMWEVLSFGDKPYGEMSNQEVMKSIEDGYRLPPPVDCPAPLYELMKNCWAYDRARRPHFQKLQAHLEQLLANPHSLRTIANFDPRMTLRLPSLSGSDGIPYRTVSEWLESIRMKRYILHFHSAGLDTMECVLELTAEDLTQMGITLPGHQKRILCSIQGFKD
CDK5/p25, sequence (Q00535 whole entry): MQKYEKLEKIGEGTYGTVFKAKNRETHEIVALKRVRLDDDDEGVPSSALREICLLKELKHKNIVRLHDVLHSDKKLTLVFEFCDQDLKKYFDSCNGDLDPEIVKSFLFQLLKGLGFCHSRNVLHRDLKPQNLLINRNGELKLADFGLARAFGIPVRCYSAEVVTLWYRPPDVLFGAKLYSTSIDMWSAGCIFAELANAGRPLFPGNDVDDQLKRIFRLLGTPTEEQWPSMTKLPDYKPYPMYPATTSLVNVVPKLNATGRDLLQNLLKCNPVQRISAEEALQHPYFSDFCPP
CDK5/p25, sequence (Q15078 99-307 partner): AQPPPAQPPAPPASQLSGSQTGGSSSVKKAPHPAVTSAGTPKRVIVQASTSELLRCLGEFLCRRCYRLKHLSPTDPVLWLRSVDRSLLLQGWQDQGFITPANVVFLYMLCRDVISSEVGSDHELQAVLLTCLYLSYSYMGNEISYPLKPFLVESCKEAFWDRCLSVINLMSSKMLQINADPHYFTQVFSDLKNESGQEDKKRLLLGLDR
JAK3, sequence (P52333 whole entry): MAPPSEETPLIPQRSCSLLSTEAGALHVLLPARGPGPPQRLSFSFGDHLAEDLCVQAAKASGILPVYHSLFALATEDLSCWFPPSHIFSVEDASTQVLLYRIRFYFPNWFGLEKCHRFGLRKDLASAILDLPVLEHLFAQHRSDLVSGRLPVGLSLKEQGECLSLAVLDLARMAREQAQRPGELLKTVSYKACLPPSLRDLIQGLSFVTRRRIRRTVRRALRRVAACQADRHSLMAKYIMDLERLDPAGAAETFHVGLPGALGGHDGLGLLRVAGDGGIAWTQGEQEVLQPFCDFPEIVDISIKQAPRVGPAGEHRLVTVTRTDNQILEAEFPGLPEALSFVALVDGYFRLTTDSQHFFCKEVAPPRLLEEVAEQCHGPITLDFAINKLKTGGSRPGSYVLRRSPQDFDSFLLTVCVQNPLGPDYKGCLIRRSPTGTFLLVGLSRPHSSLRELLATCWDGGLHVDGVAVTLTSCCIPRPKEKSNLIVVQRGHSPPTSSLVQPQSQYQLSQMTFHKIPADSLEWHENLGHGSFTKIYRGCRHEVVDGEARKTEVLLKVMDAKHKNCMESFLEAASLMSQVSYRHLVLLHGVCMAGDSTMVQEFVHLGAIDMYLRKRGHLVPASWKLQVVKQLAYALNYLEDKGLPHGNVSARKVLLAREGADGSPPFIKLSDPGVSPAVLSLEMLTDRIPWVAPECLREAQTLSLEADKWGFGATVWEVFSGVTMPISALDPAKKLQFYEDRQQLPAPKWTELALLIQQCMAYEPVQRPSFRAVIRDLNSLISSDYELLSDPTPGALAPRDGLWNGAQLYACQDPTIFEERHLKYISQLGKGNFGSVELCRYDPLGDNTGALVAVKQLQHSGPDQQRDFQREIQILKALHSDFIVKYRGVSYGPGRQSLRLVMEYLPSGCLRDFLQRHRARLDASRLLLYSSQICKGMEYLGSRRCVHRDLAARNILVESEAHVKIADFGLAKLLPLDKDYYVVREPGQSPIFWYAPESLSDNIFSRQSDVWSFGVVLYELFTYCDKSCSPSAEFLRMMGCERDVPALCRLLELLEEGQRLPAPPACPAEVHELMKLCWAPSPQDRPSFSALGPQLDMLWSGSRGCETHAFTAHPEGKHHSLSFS

Nc1cc(N)c2c(c1)C(=O)NC2=O [RJ1, 4,6-diaminoisoindoline-1,3-dione]
inhibition at 10 µM (RPS6KB1 (p70S6K); read-out: % Inhibition): 80%
inhibition at 10 µM (RPS6KB1 (p70S6K); read-out: % Inhibition class): ≥ 80%
selectivity against a panel of 120 disease relevant kinases (RPS6KB1 (p70S6K); SelectScreen panel): RPS6K1-selective inhibitor
inhibition at 10 µM (ABL2 (Arg); read-out: % Inhibition): 54%
inhibition at 10 µM (ABL2 (Arg); read-out: % Inhibition class): 40 to 80%
inhibition at 10 µM (AURKC (Aurora C); read-out: % Inhibition): 40%
inhibition at 10 µM (AURKC (Aurora C); read-out: % Inhibition class): < 40%
inhibition at 10 µM (CDC42 BPA (MRCKA); read-out: % Inhibition): 0%
inhibition at 10 µM (CDC42 BPA (MRCKA); read-out: % Inhibition class): < 40%
inhibition at 10 µM (CDK1/cyclin B; read-out: % Inhibition): 8%
inhibition at 10 µM (CDK1/cyclin B; read-out: % Inhibition class): < 40%
inhibition at 10 µM (CDK5/p25; read-out: % Inhibition): 27%
inhibition at 10 µM (CDK5/p25; read-out: % Inhibition class): < 40%
% Inhibition (CDK7/cyclin H/MNAT1; 10 μM): 1% and −1%
inhibition at 10 µM (CDK7/cyclin H/MNAT1; read-out: % Inhibition class): < 40%
inhibition at 10 µM (EGFR (ErbB1); read-out: % Inhibition): 12%
inhibition at 10 µM (EGFR (ErbB1); read-out: % Inhibition class): < 40%
inhibition at 10 µM (EPHA1; read-out: % Inhibition): 15%
inhibition at 10 µM (EPHA1; read-out: % Inhibition class): < 40%
inhibition at 10 µM (ERBB4 (HER4); read-out: % Inhibition): 25%
inhibition at 10 µM (ERBB4 (HER4); read-out: % Inhibition class): < 40%
inhibition at 10 µM (FES (FPS); read-out: % Inhibition): 36%
inhibition at 10 µM (FES (FPS); read-out: % Inhibition class): < 40%
inhibition at 10 µM (HCK; read-out: % Inhibition): 21%
inhibition at 10 µM (HCK; read-out: % Inhibition class): < 40%
inhibition at 10 µM (JAK1; read-out: % Inhibition): 9%
inhibition at 10 µM (JAK1; read-out: % Inhibition class): < 40%
inhibition at 10 µM (JAK2; read-out: % Inhibition): 22%
inhibition at 10 µM (JAK2; read-out: % Inhibition class): < 40%
inhibition at 10 µM (JAK3; read-out: % Inhibition): 28%
inhibition at 10 µM (JAK3; read-out: % Inhibition class): < 40%
inhibition at 10 µM (LCK; read-out: % Inhibition): 31%
inhibition at 10 µM (LCK; read-out: % Inhibition class): < 40%
inhibition at 10 µM (MAP2K1 (MEK1); read-out: % Inhibition): 13%
inhibition at 10 µM (MAP2K1 (MEK1); read-out: % Inhibition class): < 40%
inhibition at 10 µM (MAP3K8 (COT); read-out: % Inhibition): 29%
inhibition at 10 µM (MAP3K8 (COT); read-out: % Inhibition class): < 40%
inhibition at 10 µM (MET (cMet); read-out: % Inhibition): -4%
inhibition at 10 µM (MET (cMet); read-out: % Inhibition class): < 40%
inhibition at 10 µM (NTRK1 (TRKA); read-out: % Inhibition): 5%
inhibition at 10 µM (NTRK1 (TRKA); read-out: % Inhibition class): < 40%
inhibition at 10 µM (PIM1; read-out: % Inhibition): 35%
inhibition at 10 µM (PIM1; read-out: % Inhibition class): < 40%
inhibition at 10 µM (PLK1; read-out: % Inhibition): 9%
inhibition at 10 µM (PLK1; read-out: % Inhibition class): < 40%
inhibition at 10 µM (PRKCB2 (PKC beta II); read-out: % Inhibition): 23%
inhibition at 10 µM (PRKCB2 (PKC beta II); read-out: % Inhibition class): < 40%
inhibition at 10 µM (RAF1 (cRAF) Y340D Y341D; read-out: % Inhibition): 6%
inhibition at 10 µM (RAF1 (cRAF) Y340D Y341D; read-out: % Inhibition class): < 40%
inhibition at 10 µM (RET; read-out: % Inhibition): 79%
inhibition at 10 µM (RET; read-out: % Inhibition class): 40 to 80%
inhibition at 10 µM (ROS1; read-out: % Inhibition): 3%
inhibition at 10 µM (ROS1; read-out: % Inhibition class): < 40%
inhibition at 10 µM (SPHK1): < 40%
inhibition at 10 µM (TYRO3 (RSE); read-out: % Inhibition): 25%
inhibition at 10 µM (TYRO3 (RSE); read-out: % Inhibition class): < 40%
